Experimental data: patent publication US20250268894A1, “MACROCYCLE COMPOUNDS FOR THE TREATMENT OF CANCER” (Hoffmann-La Roche Inc., priority 2022, published 2025)

Assays:
[1] = tested on: Miapaca-2 KRAS G12C + D60P cells; assay: Stable KRAS mutant cell line viability assay (CellTiter-Glo), G12C + D60P; assay type: cell-based; details: Homo sapiens, MIA PaCa-2, 72 h, Miapaca-2 mutant cells, 3 d
Source text: (§1) The aim of the study was to determine the potency and efficacy of compounds for cell proliferation using CellTiter-Glo® (CTG) Luminescent Cell Viability Assay (Promega Corp., Madison, WI). We cloned […] KRAS^G12C variant sequences with secondary mutations (V8A, V9Y, S17E, T58I, A59T, S65W, R68S, D69P, M72I, D92R, H95N, Y96D, Q99F, Q99W, Y96H, and F156L) into the Miapaca-2. Totally 14 stable Miapaca-2 mutant cell lines were established through lentivirus infection. For the cell viability assay, cells were dosed with compounds in a 9-point dose-response using a 4 fold dilution series at a top dose of 10 μM. KRAS mutant cells were maintained in DMEM+10% FBS+2.5% HI Horse serum+1% PS+1 μg/mL Puromycin and seeded into 96-well plates at 800-1,500 cells per well 24 h before compound addition and then incubated with compound for 3 d before assaying viability (CellTiter-Glo, Promega). Assays were performed in biological duplicates. Nonlinear regression curves were fitted using Xfit. IC50 (absolute IC50) is the dose at which the estimated viability is 50% relative to untreated wells.

[2] = tested on: phosphorylation of ERK, KRAS G12C in NCI-H358 cells; assay: pERK inhibition assay, KRAS G12C in NCI-H358 cells; assay type: cell-based, human; details: Homo sapiens, NCI-H358, 4 hours
How it was run: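 NCI-H358 (G12C), AGS (G12D) and SW620 (G12V) cells in RPMI-1640/10% FBS, plated overnight, then treated 4 h with compound (0.5% DMSO final). Fixed, methanol-permeabilized; phospho-ERK detected by in-cell ELISA (anti-pERK, HRP secondary, TMB, OD450). IC50 from 4-parameter sigmoidal fit.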

[3] = tested on: Miapaca-2 KRAS G12C + Q99W cells; assay: Stable KRAS mutant cell line viability assay (CellTiter-Glo), G12C + Q99W; assay type: cell-based; details: Homo sapiens, MIA PaCa-2, 72 h, Miapaca-2 mutant cells, 3 d
Source text: as §1

[4] = tested on: Miapaca-2 KRAS G12C + A59T cells; assay: Stable KRAS mutant cell line viability assay (CellTiter-Glo), G12C + A59T; assay type: cell-based; details: Homo sapiens, MIA PaCa-2, 72 h, Miapaca-2 mutant cells, 3 d
Source text: as §1

AGS cells (KRAS G12D) = assay: Cell viability assay (Cell Counting Kit-8), KRAS G12D; assay type: cell-based; details: Homo sapiens, 72 hrs
How it was run: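 Cells seeded overnight at 5,000/well (NCI-H358) or 2,000/well (AGS, SW620), then exposed to compound for 72 hrs at 0.5% DMSO final. CCK-8 read as OD450 minus OD650 after 2 hrs; IC50 from 4-parameter sigmoidal fit.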

KRAS G12C-BRAF complex = KRAS G12C-BRAF complex (Homo sapiens (Human), UniProt P01116+P62937, G12C); assay: KRAS-BRAF with CYPA (500 nM) interaction assay (TR-FRET), G12C; assay type: biochemical
Sequence of KRAS G12C-BRAF complex (P01116-2 other isoform, or with tags, fused parts or gaps G12C): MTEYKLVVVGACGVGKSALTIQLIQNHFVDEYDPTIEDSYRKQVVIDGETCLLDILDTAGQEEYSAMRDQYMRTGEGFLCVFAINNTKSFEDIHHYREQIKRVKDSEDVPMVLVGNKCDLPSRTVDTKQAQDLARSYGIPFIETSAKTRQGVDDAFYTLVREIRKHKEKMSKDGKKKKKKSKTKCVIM
Sequence of KRAS G12C-BRAF complex (P62937 whole entry): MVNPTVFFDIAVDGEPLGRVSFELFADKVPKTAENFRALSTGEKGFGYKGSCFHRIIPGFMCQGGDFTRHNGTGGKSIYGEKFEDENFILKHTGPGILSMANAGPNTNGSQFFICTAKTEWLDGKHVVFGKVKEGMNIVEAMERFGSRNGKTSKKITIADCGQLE
Protocol: Kras-BRAF with CYPA (500 nM) Interaction Assay In this example, TR-FRET was also used to measure the compound or compound-CYPA dependent disruption of the KRAS G12C-BRAF complex. This protocol was also used to measure disruption of KRAS G12D or KRAS G12V binding to BRAF by a compound of the invention, respectively. […] Compound was present in plate wells as a 16-point 3-fold dilution series starting at a final concentration of 10 μM and incubated for 3 hours. […] TR-FRET signal was read on a […] microplate reader (Ex320 nm, Em 665/615 nm). Compounds that facilitate disruption of the KRAS-BRAF complex were identified as those eliciting a decrease in the TR-FRET ratio relative to DMSO control wells.

[5] = tested on: Miapaca-2 KRAS G12C + M72I cells; assay: Stable KRAS mutant cell line viability assay (CellTiter-Glo), G12C + M72I; assay type: cell-based; details: Homo sapiens, MIA PaCa-2, 72 h, Miapaca-2 mutant cells, 3 d
Source text: as §1

[6] = tested on: Miapaca-2 KRAS G12C + V9Y cells; assay: Stable KRAS mutant cell line viability assay (CellTiter-Glo), G12C + V9Y; assay type: cell-based; details: Homo sapiens, MIA PaCa-2, 72 h, Miapaca-2 mutant cells, 3 d
Source text: as §1

[7] = tested on: Miapaca-2 KRAS G12C + T58I cells; assay: Stable KRAS mutant cell line viability assay (CellTiter-Glo), G12C + T58I; assay type: cell-based; details: Homo sapiens, MIA PaCa-2, 72 h, Miapaca-2 mutant cells, 3 d
Source text: as §1

Structure (SMILES): CO[C@@H](C)c1ncc(N2CCN(CC(F)(F)F)CC2)cc1-c1c2c3cc(ccc3n1CC(F)(F)F)-c1csc(n1)C[C@H](NC(=O)[C@H](C(C)C)N(C)C(=O)N1CCOCC1)C(=O)N1CCC[C@H](N1)C(=O)OCC(C)(C)C2 (atropisomer, axis not shown; (M)) [Example 6]
- IC50 [1]: 8 nM
- IC50 [2]: 2 nM
- IC50 [3]: 7 nM
- IC50 [4]: 11 nM
- IC50 (AGS cells (KRAS G12D)): 20 nM
- IC50 (KRAS G12C-BRAF complex): 23 nM
- IC50 [5]: 3 nM
- IC50 [6]: 2 nM
- IC50 [7]: 7 nM
